Our source for the melting point values is a melting point compilation (Tetko et al.; mined from patent text by program, amines drawn as free bases though some values may be those of a salt).

In general, melting point refers to the temperature of the solid-liquid transition. `O=C(O)Cc1cccc(OCCCCl)c1` came in with a melting point of 83 to 84 °C. As for `CCCCOc1cc(/C=C(\OCC)C(=O)O)ccc1OCCc1ccc(N(C)C(C)=O)cc1`, the melting point was determined as 121 °C. Molecule `COCc1nc2c(N)nc3cc(CCC(=O)N(C)C)ccc3c2n1CC(C)(C)O` displayed a melting point of 142 to 145 °C. The value for `Oc1ccc(-c2nnc(CCCCCCCc3ccccc3)o2)cc1` was 138 to 140 °C; that for `CC1=C(c2ccc(C(=O)N3Cc4ccc(C(=O)O)n4Cc4ccccc43)cc2)CCCC1` was 171 °C.

With `O=S(=O)(Nc1cc(F)ccc1F)c1ccccc1`, the melting point turned out to be 115 °C. As for `O=C(CNc1ccc2[nH]ncc2c1)N1CCC(Cc2ccc(F)cc2)CC1`, the melting point fell in the range of 113 to 114 °C. The value for `COc1cc(C(NC(=O)OC(C)(C)C)C(c2ccccc2)[N+](=O)[O-])ccc1Br` (configuration not stated) was 157 to 159 °C; that for `N#CCc1cc(Cl)nc(N)n1` was 110 to 115 °C. The result for `COC1CCC2C3C(C)CC4=CC(=O)C(C)CC4(C)C3CCC12C` (configuration not stated) reads 123 to 126 °C.

On to `Cc1cccc(NC(=O)N=C2CCCN2C)c1`, for which the melting point was in the range of 137 to 142 °C.

Molecule `Nc1ccc(-c2cc3c(N4CCCc5ccccc54)ncnc3[nH]2)cc1` showed a melting point of 243 to 245 °C. The result for `CC1(C)CC2(CC(C)(C)c3ccc(O)cc32)c2cc(O)ccc21` reads 215 to 217 °C. The value for `CC(C)[Si](C(C)C)(C(C)C)C1c2ccccc2-c2ccccc21` was 122 to 123 °C; that for `O=C(O)Cn1nnnc1S` was 110 to 111 °C; that for `Clc1nc(NCc2cccc(I)c2)c2ncn(C3CCCO3)c2n1` (configuration not stated) was 180 to 182 °C. `CCOC(=O)C(NC=O)=C1CC2CCC(C1)N2C(=O)OCc1ccccc1` showed a melting point of 124 °C. The result for `COc1cccc(C(=O)OC2CC3C(=O)NC4(C(=O)NS(=O)(=O)C5CC5)CC4C=CCOCCCC(NC(=O)OC(C)(C)C)C(=O)N3C2)c1` (configuration not stated) reads 149 to 151 °C; that for `O=[N+]([O-])c1cc(CS(=O)(=O)CCO)ccc1CS(=O)(=O)CCO`, 125 to 126 °C. The result for `CCCCCCCCCCOCCCN=C=O` reads 78 to 82 °C; that for `CCOC=Nc1c(S(C)=O)c(C#N)nn1-c1c(Cl)cc(C(F)(F)F)cc1Cl` (configuration not stated), 93 to 95 °C; that for `COc1cc2c(cc1C(C)(C)C)CCC2Cc1c[nH]cn1` (configuration not stated), 174 to 184 °C.

`CSC(=C[N+](=O)[O-])S(C)=O` (configuration not stated) yielded a melting point of 137 to 143 °C. With `O=c1c(Cl)c(Cl)cnn1COCc1ccccc1`, the melting point fell in the range of 60 to 64 °C. With `COC(=O)c1c[nH]cc1-c1cccc(Cl)c1Cl`, the melting point was in the range of 200 to 201 °C. In turn, `O=C(OC1CCN(Cc2cccc([N+](=O)[O-])c2)CC1)c1ccccc1` returned a melting point of 54 to 55 °C. On to `CN1CCNC(=O)C1c1ccc([N+](=O)[O-])cc1` (configuration not stated), for which the melting point lay within 185 to 186 °C. The value for `Cc1ccc2c(N3CCN(CCc4cccc(N5CCNC5=O)c4)CC3)cccc2n1` was 164 °C.

In the case of `CN(C)CCCNC(=O)[C@@H]1CCCN1S(=O)(=O)c1ccc(Cl)c(COc2cccc3c2NC(C)(C)C=C3n2cncn2)c1Cl`, the melting point stood at 154 °C. `CCCC[C@H](NS(=O)(=O)c1ccc(Br)cc1)C(=S)Nc1ccc(CCC(=O)O)cc1` registered a melting point of 174 to 176 °C. Regarding `Cc1ccc(S(=O)(=O)Cc2ccc(C(C)(C)N)cc2)cc1C`, the melting point fell in the range of 129 to 130 °C. As for `CCCc1nc(C)c(C(=O)O)n1Cc1ccc2oc(-c3ccccc3NS(=O)(=O)C(F)(F)F)c(Br)c2c1`, the melting point was in the range of 168 to 170 °C.

`Oc1c(Br)cc2oc3ccccc3c2c1Br` registered a melting point of 176 to 178 °C.

In turn, `O=C(O)Cc1noc(Cc2ccccc2)n1` had a melting point of 109 to 112 °C. The molecule `O=C(/C=C/c1ccc(N2CCCCC2)cc1)CC(=O)/C=C/c1ccc2cc[nH]c2c1` gave a melting point of 91 to 96 °C. The result for `Cc1ccc(C2=Cc3cc(C)c(C)cc3C2)cc1` reads 227 to 228 °C; that for `COc1ccc(-c2cc(F)cc3c2NC(CN)CO3)c(C)c1` (configuration not stated), 82 °C. `Cc1ccc2c(c1)c1c(n2C(=O)c2ccccc2)CCC(C(=O)O)C1` (configuration not stated) returned a melting point of 200 to 202 °C. The result for `CCc1cncc(-c2[nH]nc(C(=O)Cc3ccc4ccccc4c3)c2N)c1` reads 222 to 224 °C; that for `CCOC(=O)c1cccc(Cn2cnc3ccccc32)c1`, 68 to 70 °C. `CC1(C)Oc2ccc(C#N)cc2C(C(=O)Nc2ccccc2)=C1O`: the melting point is 167 to 170 °C. Turning to `C=C(CC(C)C(=O)O)C(=O)O` (configuration not stated), the melting point is 106 to 108 °C.

The molecule `COC(=O)[C@@H]1COC(c2ncn3c2CN(C)C(=O)c2ccccc2-3)=N1` had a melting point of 190 to 192 °C. Consider `CC(C)CN(C=NS(=O)(=O)c1c(Cl)nc2ccc(C3CC3)nn12)CC(C)C`, for which the melting point lay within 154 to 160 °C. `CCCCN(C(C)=O)c1cccc(-c2ccnc3c(C#N)cnn23)c1` yielded a melting point of 146 to 148 °C. `C[C@H](C#Cc1ccc(Cc2ccc(Cl)cc2)s1)N(O)C(N)=O` gave a melting point of 132 °C.

In turn, `Cn1cc(C(=O)NCc2ccc(Cl)cc2)c(=O)c2cc(/C=C\CO)cc(F)c21` gave a melting point of 182 to 184 °C.

Turning to `CNCC1=NN=C(c2ccc([N+](=O)[O-])cc2)c2cc3c(cc2C1)OCO3`, the melting point was 110 to 112 °C. `CS(=O)(=O)c1ccc(-c2cnn(-c3ccc(C(=O)n4cccc4)cc3)c(=O)c2-c2ccc(F)cc2)cc1` showed a melting point of 229 to 231 °C. The value for `CCCCc1cc(C)cc(=O)[nH]1` was 95 °C; that for `Cc1ccc(S(=O)(=O)N2CCC(c3ccc(O)cc3O)CC2)cc1` was 206 to 207 °C. The result for `COC1(C(=O)Nc2ccc(OC(C)C)c(Cl)c2)CC1` reads 86 to 87 °C; that for `CC1Nc2ccc(-c3ccc(F)c(C#N)c3)cc2C(C)(C)O1` (configuration not stated), 184 to 186 °C; that for `C=Cc1ccc(P(c2ccccc2)c2ccccc2)cc1`, 77 to 78 °C. The value for `CC(C)c1ccc(S(=O)(=O)Nc2ccc(Cl)cc2I)cc1` was 149 °C; that for `COc1c(Br)cc(-c2c3ccccc3cc3sc4ccccc4c23)cc1Br` was 238 to 240 °C. On to `CCc1cn2ccccc2c1S(=O)(=O)c1ccc(OCCCCBr)cc1`, for which the melting point turned out to be 111 °C.

Take `Cn1nc(-c2c(F)cccc2Cl)nc1C(O)c1ccc(Cl)cc1` (configuration not stated): the melting point lay in the range of 141 to 143 °C. The value for `CCOC(=O)c1c(O)c2cnc(SC)nc2n(C)c1=O` was 166 to 168 °C; that for `COc1ccc(-c2ccc3c(C(=O)N(C)C)c(-c4ccccc4)ccc3c2)cc1` was 171 to 173 °C. The result for `COc1cccc2c(Nc3ccccc3C)nc(Cl)nc12` reads 218 to 220 °C; that for `CC(=O)CSc1nc2ccc(Cc3ccccc3)cc2[nH]1`, 102 °C; that for `O=C(O)c1cc(I)c(F)c(F)c1F`, 167 to 171 °C. The result for `CC(C)(C)n1cc(-c2ccc(I)cc2)c(C#N)c1N` reads 166 to 167 °C; that for `Cn1ncc(C=O)c1-c1cccnc1`, 118 to 119 °C; that for `CC1CCCCN1CCC(=O)Nc1ccc2c(=O)c3ccc(NC(=O)CCN4CCCCC4C)cc3[nH]c2c1` (configuration not stated), above 320 °C.

With `Nc1ccc(SCCOC2OC(CO)C(OC3OC(CO)C(O)C(O)C3O)C(O)C2O)cc1` (configuration not stated), the melting point fell in the range of 104 to 106 °C. The result for `CCCCc1nc2c(N)nc3cc(C)ccc3c2o1` reads 187 to 188 °C; that for `CCN1CCC(O)(c2cc(F)cc(F)c2)C1` (single isomer, unassigned; (-)), 111 to 112 °C.

`CCOC(=O)C=CC(C)=CC=O` registered a melting point of 48 to 49 °C. In the case of `c1ccc(-c2nnc3cc(N4CCOCC4)c(OCc4ccccn4)nn23)cc1`, the melting point is 214 °C.

In turn, `Oc1cc2ccccc2nc1O` had a melting point of 261 to 262 °C.

In turn, `Cn1c(-c2ccc(Cl)cc2)cc(=O)c(C(=O)O)c1-c1ccc(Cl)cc1` gave a melting point of 187 to 190 °C. In turn, `c1cncc(CC2CCN(CC34CC(c5ccccc53)c3ccccc34)CC2)c1` gave a melting point of 183 to 185 °C. Regarding `CC(Cl)CCC(=O)c1ccccc1` (configuration not stated), the melting point is 28 to 30 °C. `CCc1ccc2c(c1)C=Cc1ccccc1C2c1cn(Cc2ccc(C(=O)O)o2)c(=O)[nH]c1=O` (configuration not stated) gave a melting point of 178 to 180 °C. The result for `COc1ccc2c(c1)c(C(=O)N1CCN(C)CC1)c(N1CCNCC1)n2C` reads 124 to 125 °C; that for `O=C(O)/C(=C/C1CCCCC1)c1ccc(F)c(F)c1`, 119 to 121 °C. The molecule `CC(c1ccccc1)c1cc(C(=O)O)c(O)c(C(C)c2ccccc2)c1` (configuration not stated) came in with a melting point of 147 to 150 °C. On to `O=C(O)C1=Cc2cc(S(=O)(=O)NCc3ccco3)ccc2OC1C(F)(F)F` (configuration not stated), for which the melting point fell in the range of 170 to 173 °C. Molecule `N=c1c2sc(=S)n(-c3ccccc3)c2ncn1NC(=O)c1ccco1` yielded a melting point of 228 °C. For the molecule `CC1Nc2ccccc2-c2c([N+](=O)[O-])cnn21` (configuration not stated), the melting point lay within 173 to 175 °C.

On to `Nc1ncnc2c1ncn2C1OC(C(O)C(=O)OCc2ccccc2)C(O)C1O` (configuration not stated), for which the melting point is 144 to 145 °C. As to `CCOC(=O)C(Oc1cc(-c2ccccc2)on1)C(=O)OCC`, the melting point was 62 to 64 °C.

Consider `O=C1Nc2cccnc2Oc2ccccc21`, for which the melting point is 268 to 270 °C. The value for `C=C[C@@H](C[C@H](O)[C@H](CC1CCCCC1)NC(=O)[C@H](Cc1c[nH]cn1)NC(=O)[C@@H](CC(=O)NN)Cc1ccccc1)C(C)C` was 109 °C.

`CC(C)(C)OC(=O)c1cc[nH]c1`: the melting point was in the range of 82 to 84 °C. The result for `CC1C(=O)Oc2c(Oc3ccccc3Cl)cccc21` (configuration not stated) reads 92 to 95 °C; that for `COc1cc(-c2nc(N3CCOCC3)c3c(C)c(C#N)sc3n2)cc(OC)c1OC`, above 250 °C. On to `CCC(=O)N1N=C(c2ccc(N)cc2)c2cc(C)ccc2CC1C` (configuration not stated), for which the melting point is 166 to 168 °C. The value for `Cc1[nH]c2ccc(CCOS(C)(=O)=O)cc2c1C(=O)OCc1ccccc1` was 122 to 124 °C.

Molecule `N#Cc1cc(C(F)(F)F)cnc1O` showed a melting point of 170 to 175 °C.
